Data from US8029770B2 (Rutgers, The State University, priority 2003, dated 2011).
“Also recorded” adds a separate entry of the source. Like-named read-outs stand apart in the source and are kept apart here. Marks after values point to notes of the source that are not given here.

What was measured:
[1] = Weight of mouse during topical treatment of UVB-pretreated high risk SKH-1 mice; format: in vivo
Procedure: Female SKH-1 mice were treated with 30 mJ/cm^2 of UVB twice a week for 20 weeks.

cyclin B1 = assay: Epidermal cyclin B1 in UVB-treated mice, western blot and immunohistochemistry; format: in vivo, mouse
[2] = test system: UVB-induced skin tumors in high risk SKH-1 mice
[3] = test system: UVB-induced skin lesions in SKH-1 mice; assay: Prevention of UVB-induced skin (sunburn) lesions, sunscreen effect; format: in vivo, mouse; details: 4.8% caffeine or 8.0% caffeine sodium benzoate (24 μmoles) in 100 mg DERMABASE 30 minutes before UVB 180 mJ/cm^2 on two consecutive days (FIG. 2)
Procedure: The areas (mm^2) and the intensity of red color in UVB-induced skin lesion were estimated semi-quantitatively 5 days after first UVB treatment. The lesion index were calculated as the lesion area multiplied by the arbitrary intensity: 0, no lesion; 1 barely detectable red lesion; 2 moderate red lesion, and 3, bright red lesion.
Outdoor occupational human exposure to UVB or a sunbathing exposure in the summer has been reported to range from 50-100 mJ/cm^2 per day (Larko, et al. (1983) Clin. Exp. Dermatol. 8:279-285; Diffey (1991) Phys. Med. Biol. 36:299-328).

[4] = test system: apoptotic sunburn cells in the epidermis of SKH-1 mice; assay: UVB-induced apoptotic sunburn cells in the epidermis of SKH-1 mice after topical application; format: in vivo, mouse; details: for Percent Apoptotic Sunburn Cells, Non-UVB Treated: no UVB
Procedure: Chemicals and Animals. […] Female SKH-1 hairless mice (6 to 7 weeks old) were purchased from the Charles River Breeding Laboratories, and the animals were kept in an animal facility for at least one week before use at 7 to 8 weeks of age. Mice were given water and PURINA® Laboratory CHOW® 5001 diet from Ralston-Purina (St. […] For the analysis conducted herein, 5 mice were used per group. Treatment of Mice with UVB. […] The radiation was further calibrated with a model IL-1700 research radiometer/photometer (International Light, Newburyport, Mass.). Measurement of apoptotic sunburn cells. Identification of apoptoic sunburn cells was based morphologically on cell shrinkage and nuclear condensation due to fragmentation of the cells. […] Six hours after UVB, the animals were sacrificed and apoptotic sunburn cells in the epidermis were determined morphologically. […] Six hours after UVB, the animals were sacrificed and apoptotic sunburn cells in the epidermis were determined morphologically. […] Acetone Formulation. […] Six hours after UVB, the animals were sacrificed and apoptotic sunburn cells in the epidermis were determined morphologically. […] […] Formulations. […] Six hours after UVB the animals were sacrificed and apoptotic sunburn cells in the epidermis were determined morphologically. […] Six hours after UVB the animals were sacrificed and apoptotic sunburn cells in the epidermis were determined morphologically.

phospho-Chk2 (Ser387) = assay: Epidermal phospho-Chk2 (Ser387) in UVB-treated mice, western blot; format: in vivo, mouse; details: topical immediately after UVB 30 mJ/cm2; 6 hours

## Cn1c(=O)c2c(ncn2C)n(C)c1=O.O=C([O-])c1ccccc1.[Na+] [Caffeine Sodium Benzoate, caffeine sodium benzoate]
[1]; week 0, 2% CSB in DERMABASE
  Weight of mouse: 30.5 ± 0.5 g
[1]; week 0, 6% CSB in DERMABASE
  Weight of mouse: 30.4 ± 0.6 g
[1]; week 5, 2% CSB in DERMABASE
  Weight of mouse: 30.3 ± 0.4 g
[1]; week 5, 6% CSB in DERMABASE
  Weight of mouse: 29.9 ± 0.5 g
[1]; week 7, 2% CSB in DERMABASE
  Weight of mouse: 30.6 ± 0.4 g
[1]; week 7, 6% CSB in DERMABASE
  Weight of mouse: 29.8 ± 0.5 g
[1]; week 9, 2% CSB in DERMABASE
  Weight of mouse: 30.6 ± 0.4 g
[1]; week 9, 6% CSB in DERMABASE
  Weight of mouse: 30.0 ± 0.5 g
[1]; week 11, 2% CSB in DERMABASE
  Weight of mouse: 30.7 ± 0.5 g
[1]; week 11, 6% CSB in DERMABASE
  Weight of mouse: 30.2 ± 0.5 g
Cyclin B1; UVB-treated mice, frozen sections, immunohistochemical
  percent of cyclin B1 positive cells in the epidermis: substantially enhanced
Cyclin B1; no UVB
  effect on cyclin B1 positive cells in the absence of UVB: little or no effect
Cyclin B1; topical immediately after UVB 30 mJ/cm2, western blot
  level of epidermal cyclin B1 vs UVB alone: increased substantially
[2]; week 0, 2% CSB in DERMABASE
  No. of large tumors (diameter > 5 mm): 0
  Tumor volume per mouse (all mice) (mm^3): 0 mm^3
  Tumor volume per tumor (mm^3): 0 mm^3
  Tumors per mouse: 0
[2]; week 0, 6% CSB in DERMABASE
  No. of large tumors (diameter > 5 mm): 0
  Tumor volume per mouse (all mice) (mm^3): 0 mm^3
  Tumor volume per tumor (mm^3): 0 mm^3
  Tumors per mouse: 0
[2]; week 5, 2% CSB in DERMABASE
  No. of large tumors (diameter > 5 mm): 0
  Tumor volume per mouse (all mice) (mm^3): 0.1 ± 0.1 mm^3
  Tumor volume per tumor (mm^3): 0.5 ± 0.0 mm^3
  Tumors per mouse: 0.2 ± 0.1
[2]; week 5, 6% CSB in DERMABASE
  No. of large tumors (diameter > 5 mm): 0
  Tumor volume per mouse (all mice) (mm^3): 0.0 ± 0.0 mm^3
  Tumor volume per tumor (mm^3): 0.5 ± 0.0 mm^3
  Tumors per mouse: 0.0 ± 0.0
[2]; week 7, 2% CSB in DERMABASE
  No. of large tumors (diameter > 5 mm): 0
  Tumor volume per mouse (all mice) (mm^3): 0.6 ± 0.4 mm^3
  Tumor volume per tumor (mm^3): 1.5 ± 0.5 mm^3
  Tumors per mouse: 0.4 ± 0.2
[2]; week 7, 6% CSB in DERMABASE
  No. of large tumors (diameter > 5 mm): 0
  Tumor volume per mouse (all mice) (mm^3): 0.1 ± 0.1 mm^3
  Tumor volume per tumor (mm^3): 0.5 ± 0.0 mm^3
  Tumors per mouse: 0.2 ± 0.1
[2]; week 9, 2% CSB in DERMABASE
  No. of large tumors (diameter > 5 mm): 0
  Tumor volume per mouse (all mice) (mm^3): 1.0 ± 0.5 mm^3
  Tumor volume per tumor (mm^3): 1.9 ± 0.9 mm^3
  Tumors per mouse: 0.5 ± 0.2
[2]; week 9, 6% CSB in DERMABASE
  No. of large tumors (diameter > 5 mm): 0
  Tumor volume per mouse (all mice) (mm^3): 0.3 ± 0.2 mm^3
  Tumor volume per tumor (mm^3): 0.9 ± 0.4 mm^3
  Tumors per mouse: 0.3 ± 0.1
[2]; week 11, 2% CSB in DERMABASE
  No. of large tumors (diameter > 5 mm): 0
  Tumor volume per mouse (all mice) (mm^3): 1.8 ± 0.2 mm^3
  Tumor volume per tumor (mm^3): 2.1 ± 0.6 mm^3
  Tumors per mouse: 0.9 ± 0.3
[2]; week 11, 6% CSB in DERMABASE
  No. of large tumors (diameter > 5 mm): 0
  Tumor volume per mouse (all mice) (mm^3): 1.0 ± 0.4 mm^3
  Tumor volume per tumor (mm^3): 2.0 ± 0.5 mm^3
  Tumors per mouse: 0.5 ± 0.2
[3]
  formation of UVB-induced sunburn (skin) lesions: significantly prevented skin lesion formation; also recorded: inhibited the formation of sunburn lesions; also recorded: even more dramatic inhibitory effect
[4]; 6.2 μmole (each) in 100 μL acetone:water (9:1) immediately after UVB 30 mJ/cm^2 and at 30 and 120 min, 6 h, mean ± S.E.
  Percent Sunburn Cells, UVB: 1.10 ± 0.10%
[4]; 6.2 μmole in 100 μL acetone right after UVB 30 mJ/cm^2 and at 30 and 120 min, 6 h after UVB, mean ± S.E.
  Percent Apoptotic Sunburn Cells: 1.089 ± 0.080^a %
[4]; 100 mg formulation (2.4% caffeine or 4.0% caffeine sodium benzoate, 12.4 μmole, in DERMABASE; or commercial product) immediately after UVB 30 mJ/cm^2, 6 h
  Percent Sunburn Cells, UVB: 2.33 ± 0.36^a %
[4]; 1.0% CSB in 100 mg DERMABASE immediately after UVB 30 mJ/cm^2, 6 h
  Percent Sunburn Cells, UVB: 0.74 ± 0.20^a %
[4]; 2.0% CSB in 100 mg DERMABASE immediately after UVB 30 mJ/cm^2, 6 h
  Percent Sunburn Cells, UVB: 0.99 ± 0.20^a %
[4]; 4.0% CSB in 100 mg DERMABASE immediately after UVB 30 mJ/cm^2, 6 h
  Percent Sunburn Cells, UVB: 1.22 ± 0.19^a %
[4]; 6.0% CSB in 100 mg DERMABASE immediately after UVB 30 mJ/cm^2, 6 h
  Percent Sunburn Cells, UVB: 1.67 ± 0.31^a %
[4]; 8.0% CSB in 100 mg DERMABASE immediately after UVB 30 mJ/cm^2, 6 h
  Percent Sunburn Cells, UVB: 1.75 ± 0.32^a %
[4]; DERMABASE vehicle, equimolar amounts (Table 4)
  enhancement of UVB-induced apoptosis in the epidermis, applied in DERMABASE: to a greater extent than equimolar amounts of caffeine
[4]; Exp-1, 6.2 μmole in acetone:water (9:1) x3 after UVB 30 mJ/cm^2, 6 h
  Percent Apoptotic Sunburn Cells: 1.09 ± 0.08%
[4]; Exp-2, 3.1 μmole in acetone:water (9:1) x3 after UVB 30 mJ/cm^2, 6 h
  Percent Apoptotic Sunburn Cells: 0.45 ± 0.07%
[4]; Exp-2, 3.1 μmole
  Percent Apoptotic Sunburn Cells, Non-UVB Treated: 0.02 ± 0.01%
[4]; Exp-2, 6.2 μmole in acetone:water (9:1) x3 after UVB 30 mJ/cm^2, 6 h
  Percent Apoptotic Sunburn Cells: 0.68 ± 0.06%
[4]; Exp-2, 6.2 μmole
  Percent Apoptotic Sunburn Cells, Non-UVB Treated: 0.03 ± 0.01%
[4]; Table 1, vs acetone group, 6.2 μmole x3 after UVB 30 mJ/cm^2, 6 h
  % Induction: 434%
[4]; Table 3 Exp-1, 6.2 μmole
  % Induction: 445%
[4]; Table 3 Exp-2, 3.1 μmole
  % Induction: 114%
[4]; Table 3 Exp-2, 6.2 μmole
  % Induction: 224%
[4]; Table 4, 1.0% CSB in DERMABASE
  % Induction: 270%
[4]; Table 4, 2.0% CSB in DERMABASE
  % Induction: 395%
[4]; Table 4, 4.0% CSB in DERMABASE
  % Induction: 510%
[4]; Table 4, 6.0% CSB in DERMABASE
  % Induction: 735%
[4]; Table 4, 8.0% CSB in DERMABASE
  % Induction: 775%
[4]; no UVB (Table 3)
  effect on non-UVB-treated cells: unaffected
phospho-Chk2 (Ser387)
  UVB-induced increase in the level of phospho-Chk2 (Ser387): inhibited
